# Earlier results, collected in US20240416337A1, “Quantitation of chemical, biological and biochemical analytes on a flow assay using a smartphone” (Real-Time Analyzers, Inc., priority 2023, published 2024).
# Experiments:
# [1] = blood compared with saliva
# [2] = in vivo
structure (smiles),measurement,setting,value
C=CC[C@@H]1/C=C(\C)C[C@H](C)C[C@H](OC)[C@H]2O[C@@](O)(C(=O)C(=O)N3CCCC[C@H]3C(=O)O[C@H](/C(C)=C/[C@@H]3CC[C@@H](O)[C@H](OC)C3)[C@H](C)[C@@H](O)CC1=O)[C@H](C)C[C@@H]2OC [tacrolimus],tacrolimus concentration in the blood,[1],modestly higher than in saliva
same,ionization at physiological pH,,does not ionize
same,passage through salivary glands into the oral cavity,[2],readily passes through salivary glands
